From publication PMC11409717, “Three separate pathways in Rhizobium leguminosarum maintain phosphatidylcholine biosynthesis, which is required for symbiotic nitrogen fixation with clover” (Applied and Environmental Microbiology, 2024)

Experiments:
Pcs = molecular target: T1, Pcs (Rhizobium redzepovicii, UniProt A0AAW8P1U5); assay: TLC of lipids from expressing E. coli cells, CuSO4 stain; type: cell-based; details: endogenous CDP-DAG, 30 °C, 20 h
T1 construct: pET28b (NdeI/XhoI), expressed in E. coli BL21 (DE3) cells, not purified
T1 sequence (A0AAW8P1U5 1-242): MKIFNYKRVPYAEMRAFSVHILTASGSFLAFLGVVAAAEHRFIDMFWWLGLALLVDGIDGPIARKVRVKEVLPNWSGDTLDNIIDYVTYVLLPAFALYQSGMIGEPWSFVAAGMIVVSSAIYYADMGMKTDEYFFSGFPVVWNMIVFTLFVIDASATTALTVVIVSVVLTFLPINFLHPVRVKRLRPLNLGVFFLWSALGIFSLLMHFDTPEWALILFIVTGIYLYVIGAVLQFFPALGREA

PmtR1 = molecular target: T2, PmtR1 (Rhizobium leguminosarum, UniProt A0A2Z4YNE2); assay: in vitro methylation, lipid extraction and TLC with CuSO4 stain; type: biochemical; details: SAM; […] KH2PO4 pH […]; […] Triton X-100; […] °C, […] h; with or without PG or CL
T2 construct: gene DLJ82_4359; His-tagged, pET24b, E. coli BL21 (DE3), Ni-IDA and SEC; 23-25 kDa
T2 sequence (A0A2Z4YNE2 1-217): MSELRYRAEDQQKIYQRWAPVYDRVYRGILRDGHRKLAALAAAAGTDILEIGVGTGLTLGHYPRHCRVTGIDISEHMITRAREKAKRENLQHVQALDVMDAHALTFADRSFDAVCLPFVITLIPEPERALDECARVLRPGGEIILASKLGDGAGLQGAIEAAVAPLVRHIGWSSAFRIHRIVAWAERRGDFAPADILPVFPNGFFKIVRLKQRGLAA

PmtS2 = molecular target: T3, PmtS2 (Rhizobium leguminosarum, UniProt A0A2Z4YJT5); assay: as above; type: biochemical; details: SAM; […] KH2PO4 pH […]; […] Triton X-100; […] °C, […] h; with or without PG or CL
T3 construct: gene DLJ82_3306; His-tagged, synthetic gene in pET28b, E. coli BL21 (DE3), Ni-IDA and SEC, one unknown co-purifying protein; 23-25 kDa
T3 sequence (A0A2Z4YJT5 1-199): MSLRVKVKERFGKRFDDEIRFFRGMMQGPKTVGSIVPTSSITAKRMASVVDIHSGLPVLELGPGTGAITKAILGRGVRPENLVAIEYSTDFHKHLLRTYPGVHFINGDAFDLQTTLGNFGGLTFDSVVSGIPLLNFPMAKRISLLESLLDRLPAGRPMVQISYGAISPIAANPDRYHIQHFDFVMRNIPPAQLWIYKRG

PmtS1 = molecular target: T4, PmtS1 (Rhizobium leguminosarum, UniProt A0A2Z4YHW5); assay: as above; type: biochemical; details: SAM; […] KH2PO4 pH […]; […] Triton X-100; […] °C, […] h; with or without PG or CL
T4 construct: gene DLJ82_3449; His-tagged, pET24b, E. coli BL21 (DE3), Ni-IDA and buffer exchange only (partly pure); 23-25 kDa
T4 sequence (A0A2Z4YHW5 1-223): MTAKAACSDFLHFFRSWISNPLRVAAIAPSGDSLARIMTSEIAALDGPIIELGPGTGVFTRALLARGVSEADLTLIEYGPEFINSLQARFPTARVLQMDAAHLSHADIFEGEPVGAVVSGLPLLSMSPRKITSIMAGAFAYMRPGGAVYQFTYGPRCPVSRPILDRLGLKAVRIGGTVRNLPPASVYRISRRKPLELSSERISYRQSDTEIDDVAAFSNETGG

CN(C)CCO [DMEA, 2-(dimethylamino)ethanol]
TLC of lipids from expressing E. coli cells, CuSO4 stain (Pcs; M9 minimal medium with 1 mM DMEA): effectively converting these methylated substrates into MMPE and DMPE (Fig. 2B)

CCCCCCCC/C=C\CCCCCCCC(=O)OC[C@H](COP(=O)(O)OCCN(C)C)OC(=O)CCCCCCC/C=C\CCCCCCCC [DMPE, 1,2-dioleoyl-sn-glycero-3-phosphoethanolamine-N,N-dimethyl]
in vitro methylation, lipid extraction and TLC with CuSO4 stain (PmtR1): DMPE proved to be the most efficiently used substrate for PmtR1
in vitro methylation, lipid extraction and TLC with CuSO4 stain (PmtS2): DMPE was methylated to PC, and this activity was stimulated by PG

CCCCCCCC/C=C\CCCCCCCC(=O)OC[C@H](COP(=O)(O)OCCNC)OC(=O)CCCCCCC/C=C\CCCCCCCC [MMPE, 1,2-dioleoyl-sn-glycero-3-phosphoethanolamine-N-methyl]
in vitro methylation, lipid extraction and TLC with CuSO4 stain (PmtR1): When MMPE was employed as a substrate, only barely detectable amounts of PC were synthesized

CCCCCCCC/C=C\CCCCCCCC(=O)OC[C@H](COP(=O)(O)OCCN)OC(=O)CCCCCCC/C=C\CCCCCCCC [PE, 1,2-dioleoyl-sn-glycero-3-phosphoethanolamine]
in vitro methylation, lipid extraction and TLC with CuSO4 stain (PmtS1): the conversion of only PE to MMPE by the purified protein (Fig. 4A)
in vitro methylation, lipid extraction and TLC with CuSO4 stain (PmtS2): PE was methylated to MMPE and small amounts of DMPE and PC

C[N+](C)(C)CCO [choline]
TLC of lipids from expressing E. coli cells, CuSO4 stain (Pcs; M9 minimal medium with 1 mM choline): PC formation was restored upon choline supplementation (Fig. 2B)
